For orientation: melting point means the temperature of the solid-liquid transition.

We go through 91 compounds from a melting point compilation (Tetko et al.; mined from patent text by program, amines drawn as free bases though some values may be those of a salt).

`Cc1c(NC(=O)c2ccc(-c3ccc(F)cc3)c(F)c2)ccc2cc(CN3CCCC3)cnc12` yielded a melting point of 176 to 178 °C.
Take `Cc1c(OCC(F)(F)F)ccnc1CS(=O)c1nc2cc(N3CCCCC3)c(F)cc2[nH]1` (stereo unspecified): the melting point is 99 to 100 °C.
On to `CC1Nc2ccc(-c3cccc(F)c3)cc2C(C)(C)O1` (stereo unspecified), for which the melting point was 139 to 140 °C.
As for `CC(C)(C)ONC(=O)Oc1ccccc1`, the melting point is 124 to 126 °C.
Next, `CCOc1c(C(=O)O)sc2ccc(OC)cc12`: 162 to 164 °C; `C=CCNc1nc(C=O)cs1`: 106 to 107 °C; `Oc1ccc(-c2ccc(C=C(Br)Br)s2)cc1`: 99 to 101 °C.
Compound `CCCCc1nc(SC)c(Br)n1Cc1ccc(-c2ccccc2S(=O)(=O)N=CN(C)C)cc1` yielded a melting point of 158 °C.
The compound `Clc1cc(Br)c2oc3c(Cl)c(Br)c(Cl)c(Br)c3c2c1` showed a melting point of 220 to 222 °C.
Compound `O=C(Nc1cccc(Oc2ccc3nc(NC(=O)C4CC4)cn3n2)c1)c1ccccc1` yielded a melting point of 265 °C.
For `Cc1cc(-n2cncn2)c2cccc(OCc3c(Cl)ccc(S(=O)(=O)N4CCC[C@H]4C(=O)NCCN(C)C)c3Cl)c2n1`, the melting point is 106 °C.
`COc1ccc(C2CC(O)(c3ccc(OC4CCCCO4)cc3)C2)cc1` (stereo unspecified) showed a melting point of 72 to 75 °C.
As for `O=C(CCCSc1ccccc1)N1C(=O)OCC1Cc1ccccc1` (stereo unspecified), the figure is 84 to 85 °C; as for `COc1ccc(-c2cc(F)cc3c2NC(CN)CO3)cc1` (stereo unspecified), 72 °C; as for `CC(C)(Cc1ccc(OCC(=O)O)cc1)NS(=O)(=O)c1ccc(Cl)cc1`, 177 to 178 °C.
For `Nc1nc2c(s1)CCN(CC=Cc1cccc(C(F)(F)F)c1)CC2`, the melting point is 102 to 105 °C.
For `Cc1ccc(Cl)c2nc3cccc(C(=O)O)c3nc12`, the melting point fell in the range of 255 to 257 °C.
For `O=C(O)c1ccc(OCCN2CCOCC2)cc1`, the melting point is 112 to 114 °C.
Next, `COc1ccc(-c2cc(Cl)c3ccc(OC)cc3n2)cc1`: 99 to 101 °C; `Cc1cc(OCc2ccccc2)cc(C)c1NC(=O)CN1CCN2C(C1)C(=O)NC2(C)C` (stereo unspecified): 224 °C.
As to `O=C(O)c1cn(Cc2cccc(Oc3ccccc3)c2)nc1-c1ccccc1`, the melting point was 148 to 149 °C.
`C=C1C(=O)N[C@@H](Cc2ccccc2)C(=O)N1C(C)C`: the melting point lay within 141 to 142 °C.
In turn, `Oc1ccc(Nc2nncc3ccccc23)cc1` registered a melting point of 245 to 247 °C.
Next, `c1ccc(N=C(Nc2ccccc2)c2ccccc2)cc1`: 143 to 144 °C; `Oc1ccc(-c2cnc(-c3ccccc3)[nH]c2=S)cc1O`: 220 °C.
For `CC(=O)CC(=O)N[C@H]1CC(=O)OC1=O`, the melting point lay within 132 to 135 °C.
`BrCc1ccc2nc(-c3ccccc3)ccc2c1` yielded a melting point of 126 to 127 °C.
The compound `COc1cc2nc(N3CCN(c4ccnc(N5CCOCC5)n4)CC3)nc(N)c2cc1OC` had a melting point of 232 to 233 °C.
As for `Cc1cc2cc(CN3CCCC3)cnc2cc1NC(=O)c1ccc(-c2ccc(Cl)cc2)nc1`, the figure is 232 to 237 °C; as for `COc1cccc(NC(=O)NC2N=C(c3ccc(C)cc3)c3ccccc3N(C)C2=O)c1` (stereo unspecified), 240 to 242 °C; as for `CS(=O)(=O)c1ccc(Oc2ccc(Cl)c(Cl)c2)nc1C#N`, 168 to 170 °C.
In turn, `Cc1noc2cc3c(cc12)C1(CO3)C(=O)N(Cc2ccccc2C(F)(F)F)c2ccccc21` (stereo unspecified) showed a melting point of 192 to 194 °C.
On to `Cc1cc(F)ccc1C=CC#N`, for which the melting point was in the range of 86 to 87 °C.
`CCOC(=O)[C@@H]1CSCCCCCCCC(CSC(C)=O)C(=O)N1` (stereo partly specified) came in with a melting point of 193 to 196 °C.
In turn, `CCN(CCCc1c[nH]c2c(Cl)cccc12)C1COc2c(F)ccc(C(N)=O)c2C1` (stereo unspecified) registered a melting point of 146 to 152 °C.
Regarding `CS(=O)(=O)Nc1ccc2c(c1)CCC1(CCC(N3CCc4ccccc4C3)CC1)O2` (stereo unspecified), the melting point was 183 to 185 °C.
For `CS(=O)(=O)c1ccc(-c2cnn(Cc3ccc(F)cc3)c(=O)c2-c2ccc(F)cc2)cc1`, the melting point was in the range of 153 to 154 °C.
Compound `O=C1CCC=C1c1ccc(Cl)cc1` registered a melting point of 71 to 72 °C.
As for `NCc1noc(-c2ncn3c2[C@@H]2CCCN2C(=O)c2sccc2-3)n1`, the figure is 156 to 158 °C.
`CCCCCCCCCCCCCc1ccc(-c2nc(-c3ccccc3Cl)nn2C)cc1` returned a melting point of 55 to 57 °C.
With `O=C1N[C@@H](Cc2ccccc2)C(=O)N/C1=C\c1ccccc1`, the melting point lay within 275 to 276 °C.
`CSc1nnc(-c2ccc(C)cc2)c(-c2ccc(C)cc2)n1` gave a melting point of 170 to 172 °C.
`CC(C)c1cccc(C(C)C)c1NC(=O)C1CCCC(Cc2ccccn2)(c2ccccc2)C1=O` (stereo unspecified) yielded a melting point of 164 to 166 °C.
Next, `O=C(c1ccc(Cl)cc1)c1ccc2c(c1)Cc1ccccc1-2`: 183 °C; `O=C(O)C(=O)c1cccc(Cl)c1`: 59 to 62 °C; `CCOC(=O)COc1ccc2cc(Br)ccc2c1Cl`: 92 to 94 °C.
Take `CC(C)C[C@H](NC(=O)OCc1ccccc1)C(=O)N[C@@H](Cc1ccccc1)C(=O)CS`: the melting point was 171 °C.
On to `COC(C)CC(=O)NC1CCC(CCN2CCN(c3nccc4c3CCO4)CC2)CC1` (stereo unspecified), for which the melting point amounted to 167 °C.
`C=CC(O)CCCC(O)CCCC1(C)OCCO1` (stereo unspecified) returned a melting point of 52 to 54 °C.
`S=C(NCCc1cccc(Cl)c1)Nc1nc2ccccc2[nH]1` registered a melting point of 171 to 177 °C.
In turn, `CC(C)(C)OC(=O)N[C@@H](Cc1ccc(OS(=O)(=O)C(F)(F)F)cc1)C(=O)OC(c1ccccc1)c1ccccc1` returned a melting point of 110 to 112 °C.
The compound `NC(=O)Cc1ccc2c(c1)CCc1ccccc1C2=O` yielded a melting point of 174 °C.
Consider `O=CNCc1ccc(CN2CCN(c3ncccn3)CC2)cc1`, for which the melting point was in the range of 97 to 98 °C.
As for `Oc1cccc(O)c1Br`, the figure is 86 to 88 °C; as for `COc1nc(N(C)C)nc(CCCCCCCCCCO)c1O`, 104 to 105 °C.
`O=C(O)CCCn1sc2ccc([N+](=O)[O-])cc2c1=O` yielded a melting point of 183 to 186 °C.
For the compound `CCOC(=O)c1sc(I)nc1C(F)(F)F`, the melting point lay in the range of 75 to 76 °C.
For the compound `Nc1nc2c(ncn2C2CC(O)C(CO)O2)c(=O)[nH]1` (stereo unspecified), the melting point was more than 300 °C.
As for `COc1ccc(-c2ccc(C#N)cn2)cc1C=O`, the figure is 197 to 198 °C; as for `CCOC(=O)N1CCN(C(c2ccccc2)c2ccccc2)CC1(C)Cc1ccc(OC)c(OC)c1` (stereo unspecified), 101 °C; as for `CCC(CC)(CC(=O)Nc1cccc(OCc2ccc3ccc(F)cc3n2)c1)C(=O)O`, 92 to 93 °C.
`C=CCOc1ccc(C(=O)CC(=O)C(C)(C)C)cc1OC`: the melting point was found to be 40 °C.
Compound `CNc1cc(Oc2cccc(C(F)(F)F)c2)nc(C(=O)O)c1` showed a melting point of 66 to 68 °C.
As for `O=C(O)[C@@H]1CCCC[C@H]1C(=O)CS` (relative stereo), the figure is 112 to 117 °C; as for `COc1ccc(-c2cnccn2)cc1`, 86 to 87 °C; as for `CC(N)c1ccc2c(c1)C(c1ccccc1F)=NC(C)(C)C(=O)N2C` (stereo unspecified), 50 to 51 °C.
Compound `O=C(Nc1cccc(S(=O)(=O)NCc2ccccc2)c1)c1cnn2c(C(F)(F)F)cc(-c3ccc(C(F)(F)F)cc3)nc12` had a melting point of 227 °C.
`CN(C(=O)c1cc(-c2ccccc2)c2sccc2c1)c1ccccc1` registered a melting point of 127 °C.
Consider `CN(C)CCCOc1ccc(-c2nnc(-c3ccc(Oc4ccccc4)cc3)o2)cc1`, for which the melting point is 95 °C.
`O=C1Cc2ccccc2C=Cc2c(Cl)cccc21` registered a melting point of 151 to 153 °C.
`O=C1C(=O)c2ccccc2C2=C1SCC1(CCN(CCCOc3ccc(F)cc3)CC1)O2` displayed a melting point of 164 to 165 °C.
Compound `O=C(O)c1ccc(-c2cc(-c3ccc(Cl)cc3)no2)cc1` had a melting point of more than 300 °C.
The compound `CN(C1CCN(c2ncc3ncnc(Nc4ccc(F)c(Cl)c4)c3n2)CC1)S(C)(=O)=O` registered a melting point of 225 to 227 °C.
In turn, `CC(=O)Nc1ccccc1C#Cc1c(F)c(F)nc(F)c1F` gave a melting point of 204 to 205 °C.
Turning to `Cc1cc2ccncc2c(=N)c2ccccc12`, the melting point is 165 to 168 °C.
In the case of `CCCCCCCCCCCCCCCc1ccc(C(=O)c2ccccc2)c(O)c1`, the melting point is 46 to 47 °C.
Next, `CC(C)(C)OC(=O)N1CCN2C(=O)OC(c3ccccc3)C2C1` (stereo unspecified): 133 to 135 °C; `COC(=O)C1Oc2ccc(C)cc2Cc2cc(C)ccc2O1`: 158 to 160 °C.
As for `Cc1nc(N2CCN(Cc3ccc(C(F)(F)F)cc3)C2=O)sc1Br`, the figure is 107 to 108 °C; as for `CC(=O)Oc1ccc(N2C(=O)CC(=O)N2c2ccccc2)cc1`, 132 to 134 °C.
The compound `Nc1nc(OCCc2ccccc2Cl)nc2c1ncn2C1OC(CO)C(O)C1O` (stereo unspecified) returned a melting point of 158 to 161 °C.
On to `O=C1COCC2=C1C(c1ccc(F)c(Br)c1)C1=C(CCS1(=O)=O)N2` (stereo unspecified), for which the melting point was more than 260 °C.
As to `Cc1cc(C)c2c(c1C)OC(C)(C)C2c1ccc(N(C)C)cc1` (stereo unspecified), the melting point was 124 to 125 °C.
`CC(=O)OCCn1ccc(=O)c(OCc2ccccc2)c1C(OC(C)=O)c1ccc(F)cc1` (stereo unspecified) showed a melting point of 118 to 119 °C.
`CCCCCCCCCCCCCCCC(=O)c1c(Br)cc(OC)c(OC)c1C(=O)NC[C@@H]1CCCN1CC` registered a melting point of 46 to 48 °C.
As to `O=C(Nc1ccc(-n2nc(C(F)(F)F)cc2C(F)(F)F)cc1)C1CCCCCC1`, the melting point lay within 174 to 175 °C.
In turn, `O=C1c2ccccc2C2(c3ccc(Cl)cc3)NCCN12` (stereo unspecified) gave a melting point of 166 to 168 °C.
With `COc1cc(C#CC(=O)O)cc(OC)c1OCc1ccccc1`, the melting point is 115 to 116 °C.
Take `Cc1nc2n(C)ccn2c(=O)c1CCN1CCC(Nc2nc3ccccc3[nH]2)CC1`: the melting point came out at 230 °C.
Compound `CCONC(=O)NNC(=O)CC` had a melting point of 122 °C.
`CCCCCCCCOc1cc2cc(C(=O)OC)c(C(=O)OC)c(-c3ccnc(Cl)c3)c2cc1OC`: the melting point lay in the range of 93 to 97 °C.
